Data as given in ChEMBL document CHEMBL5512671, “Structure-Based Optimization of Novel Sterol 24-C-Methyltransferase Inhibitors for the Treatment of Candida albicans Infections” (J Med Chem, 2024).
≈ marks a conversion by molar mass, not a printed value. Calls of active or inactive are those of the source. No cut-off for these calls is given here.

Columns and labels:
Candida albicans [1] = experiment: Synergistic antifungal activity against Candida albicans SC5314 assessed as inhibition of fungal growth incubated for 24 hrs in presence of (Z)-1,5-dimethyl-4-(4-(naphthalen-2-yl)-2-(phenylimino)thiazol-3(2H)-yl)-2-phenyl-1,2-dihydro-3H-pyrazol-3-one by broth microdilution checkerboard assay; assay type: functional
Candida albicans [2] = experiment: Synergistic antifungal activity against Candida albicans SC5314 assessed as inhibition of fungal growth incubated for 24 hrs in presence of (Z)-4-(4-(4-bromophenyl)-2-(phenylimino)thiazol-3(2H)-yl)-1,5-dimethyl-2-phenyl-1,2-dihydro-3H-pyrazol-3-one by broth microdilution checkerboard assay; assay type: functional
Candida albicans [3] = experiment: Antifungal activity against Candida albicans erg6delta/delta assessed as inhibition of fungal growth incubated for 24 hrs by CLSI protocol based broth microdilution method; assay type: functional
Candida albicans [4] = experiment: Antifungal activity against Candida albicans SN152 assessed as inhibition of fungal growth incubated for 24 hrs by CLSI protocol based broth microdilution method; assay type: functional
Candida albicans [5] = experiment: Antifungal activity against Candida albicans SC5314 assessed as inhibition of fungal growth incubated for 24 hrs by CLSI protocol based broth microdilution method; assay type: functional
Candida albicans [6] = experiment: Synergistic antifungal activity against Candida albicans SC5314 assessed as inhibition of fungal growth incubated for 24 hrs in presence of terbinafine by broth microdilution checkerboard assay; assay type: functional
Candida albicans [7] = experiment: Synergistic antifungal activity against Candida albicans SC5314 assessed as fractional inhibitory concentration index incubated for 24 hrs in presence of tridemorph by broth microdilution checkerboard assay; assay type: functional
Candida albicans [8] = experiment: Synergistic antifungal activity against Candida albicans SC5314 assessed as inhibition of fungal growth incubated for 24 hrs in presence of tridemorph by broth microdilution checkerboard assay; assay type: functional
[9] = molecular target: T1, Sterol 24-C-methyltransferase (Candida albicans (strain SC5314 / ATCC MYA-2876) (Yeast), UniProt O74198); experiment: Inhibition of recombinant Candida albicans SC5314 Erg6 methyltransferase activity using zymosterol as substrate incubated for 15 mins followed by substrate addition by liquid scintillation counter analysis
T1 sequence (O74198 whole entry): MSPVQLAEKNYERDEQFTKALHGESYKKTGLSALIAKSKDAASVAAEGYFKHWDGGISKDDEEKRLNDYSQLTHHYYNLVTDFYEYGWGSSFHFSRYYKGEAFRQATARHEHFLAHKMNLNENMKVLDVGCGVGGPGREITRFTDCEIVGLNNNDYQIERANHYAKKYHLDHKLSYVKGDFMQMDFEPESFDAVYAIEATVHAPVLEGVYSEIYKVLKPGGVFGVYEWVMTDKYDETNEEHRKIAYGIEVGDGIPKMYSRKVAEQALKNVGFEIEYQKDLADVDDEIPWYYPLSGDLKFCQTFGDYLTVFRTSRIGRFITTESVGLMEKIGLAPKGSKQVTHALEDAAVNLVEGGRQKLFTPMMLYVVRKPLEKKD

Candida albicans [10] = experiment: Antifungal activity against Candida albicans SC5314 assessed as inhibition of hyphae growth measured after 30 passages; assay type: functional, organism-based
Candida albicans [11] = experiment: Synergistic antifungal activity against Candida albicans SC5314 assessed as fractional inhibitory concentration index incubated for 24 hrs in presence of terbinafine by broth microdilution checkerboard assay; assay type: functional
Candida albicans [12] = experiment: Antifungal activity against Candida albicans SC5314 assessed as inhibition of hyphae growth incubated for 24 hrs by CLSI protocol based broth microdilution method; assay type: functional
[13] = Cytotoxicity against human BEAS-2B cells incubated for 48 hrs by CCK-8 method; assay type: toxicity, cell-based
[14] = Cytotoxicity against human HUVEC cells incubated for 48 hrs by CCK-8 method; assay type: toxicity, cell-based
[15] = Hemolytic activity in mouse RBC assessed as hemolysis at 2 to 32 ug/ml incubated for 60 mins by absorbance based analysis relative to control; assay type: toxicity, cell-based, Erythrocyte; settings: mouse red blood cells, at 2 to 32 µg/mL, dose 2-32 µg/ml, read-out: Activity

SMILES	MIC80 (Candida albicans [1])	MIC80 (Candida albicans [2])	MIC80 (Candida albicans [3])	MIC80 (Candida albicans [4])	MIC80 (Candida albicans [5])	MIC80 (Candida albicans [6])	fractional inhibitory concentration index (FICI) (Candida albicans [7])	MIC80 (Candida albicans [8])	IC50 [9]	Activity (Candida albicans [10])	fractional inhibitory concentration index (FICI) (Candida albicans [11])	MIC50 (Candida albicans [12])	EC50 at 48 h [13]	EC50 at 48 h [14]	hemolysis at 1 h [15]
CN(C/C=C/C#CC(C)(C)C)Cc1cccc2ccccc12 [TERBINAFINE]	8 ng/mL	0.5 µg/mL	0.5 µg/mL (≈ 1.72 µM)	32 µg/mL (≈ 110 µM)	32 µg/mL (≈ 110 µM)	–	–	–	–	–	–	–	–	–	–
Cc1c(-n2c(-c3ccc(Br)cc3)cs/c2=N\c2ccccc2)c(=O)n(-c2ccccc2)n1C	–	–	–	–	> 128 µg/mL	8 µg/mL	<0.1	8 µg/mL	1010 nM	Active	<0.1	2 µg/mL (≈ 3.87 µM)	> 50 µg/mL	> 50 µg/mL	< 1%
CCCCCCCCCCCCCN1CC(C)OC(C)C1 (stereo unspecified) [TRIDEMORPH]	8 ng/mL	0.5 µg/mL	0.008 µg/mL (≈ 0.0269 µM)	> 128 µg/mL	> 128 µg/mL	–	–	–	–	–	–	–	–	–	–
